Experimental data as given in patent publication US20240262842A1, “SMALL MOLECULE INHIBITORS OF KRAS G12C MUTANT” (Merck Sharp & Dohme LLC, priority 2021, published 2024).

Assays:
[1] = target: T1, interaction between GMPPNP-bound recombinant K-Ras4B G12C mutant protein and cRAF RAS-binding domain (cRAF-RBD) (Homo sapiens, UniProt P01116, G12C); assay: Inhibitory activity on interaction between KRAS G12C and cRAF (Alpha technology); conditions: GMPPNP-bound KRAS G12C incubated with compound 25° C. 1 hour; Table 2-1; read-out: IC50
T1 construct: His-tag (N)
Procedure, shortened: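 Alpha signal measured 1.5 h after adding cRAF-RBD (aa 50-132) and detection reagents to GMPPNP-bound KRAS G12C (aa 1-169) pretreated 1 h at 25° C with compound (pH 7.5 buffer). 0% inhibition = DMSO, 100% = GDP-loaded KRAS; IC50 by curve fit.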

MIA PaCa-2 cells = assay: Growth inhibition activity on KRAS-G12C mutant cell line (CellTiter-Glo 3D); assay type: cell-based, human; conditions: MIA PaCa-2, 3-day culture with compound, Table 3-1
Procedure, shortened: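 IC50 (nM) derived from inhibition of luminescence (CellTiter-Glo 3D) relative to compound-free wells. Cells were seeded in U-bottom plates, grown 1 day, then exposed to compound for 3 days at 37 °C with 0.2% final DMSO.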

T1 sequence (P01116 with tags, fused parts or gaps isoform P01116-2 G12C): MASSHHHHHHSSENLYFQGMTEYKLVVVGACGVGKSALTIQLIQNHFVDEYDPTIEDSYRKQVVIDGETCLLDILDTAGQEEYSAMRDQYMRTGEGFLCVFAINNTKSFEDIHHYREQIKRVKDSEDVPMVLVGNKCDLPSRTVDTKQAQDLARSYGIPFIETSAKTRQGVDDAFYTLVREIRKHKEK

Row | IC50 [1] | IC50 (MIA PaCa-2 cells; Homo sapiens, MIA PaCa-2, 72 h) | IC50 (MIA PaCa-2 cells) | Compound
1 | 9.71 nM | 34.3 nM | – | COc1cc2c(nc(C)n2C)c2c1-c1cccn3c(C(=O)c4cc(F)c(NC(=O)/C=C/CNC5(C)COC5)c(F)c4)cc(c13)CCN2C (single isomer, unassigned) [Example 141, (E)-N-(2,6-difluoro-4-(7-methoxy-9,10,12-trimethyl-9,12,13,14-tetrahydroimidazo[4″,5″: 5′,6′]benzo[1′,2′:2,3]-azocino[4,5,6-hi]indol-izine-2-carbonyl)phenyl)-4-((3-methyloxetan-3-yl)-amino)but-2-enamide]
2 | 72.3 nM | 162 nM | – | Cc1cc2c(C)n(C)nc2c2c1-c1cccn3c(C(=O)c4cc(F)c(NC(=O)/C=C/CNC5(C)COC5)c(F)c4)cc(c13)CCN2C (single isomer, unassigned) [Example 145, (E)-N-(2,6-difluoro-4-(7,9,10,12-tetramethyl-10,12,13,14-tetrahydro-indolizino[8′,1′:4,5,6]-azocino[3,2-g]indazole-2-carbonyl)phenyl)4-((3-methyloxetan-3-yl)-amino)-but-2-enamide]
3 | 31.5 nM | 118 nM | – | CN1CCc2cc(C(=O)c3cc(F)c(NC(=O)/C=C/CNC4(C)COC4)c(F)c3)n3cccc(c23)-c2c(C(F)(F)F)cc3c(ncn3C3CC3)c21 (single isomer, unassigned) [Example 153, (E)-N-(4-(9-cyclopropyl-12-methyl-7-(trifluoro-methyl)-9,12,13,14-tetra-hydroimidazo[4″,5″:5′,6′]-benzo[1′,2′:2,3]azocino-[4,5,6-hi]indolizine-2-carbonyl)-2,6-difluoro-phenyl)-4-((3-methyloxe-tan-3-yl)amino)but-2-enamide]
4 | 10.2 nM | 7.93 nM | – | Cc1c2cc(C(F)(F)F)c3c(c2nn1C)N(C)CCc1cc(C(=O)c2cc(F)c(NC(=O)/C=C/CN[C@H]4CCOC4)c(F)c2)n2cccc-3c12 (single isomer, unassigned) [Example 154]
5 | 8.95 nM | 13.5 nM | – | Cc1c2cc(C(F)(F)F)c3c(c2nn1C)N(C)CCc1cc(C(=O)c2cc(F)c(NC(=O)/C=C/CNC4(C)CC4)c(F)c2)n2cccc-3c12 (single isomer, unassigned) [Example 155, (E)-N-(2,6-difluoro-4-(9,10,12-trimethyl-7-(trifluoromethyl)-10,12,13,14-tetrahydro-indolizino[8′,1′:4,5,6]-azocino[3,2-g]indazole-2-carbonyl)phenyl)-4-((1-methylcyclopropyl)-amino)but-2-enamide]
6 | 7.22 nM | 8.16 nM | – | COc1cc2c(ncn2C)c2c1-c1cccn3c(C(=O)c4cc(F)c(NC(=O)/C=C/CN[C@H]5CCOC5)c(F)c4)cc(c13)CCN2C (single isomer, unassigned) [Example 159]
7 | 5.71 nM | 9.25 nM | – | COc1cc2c(ncn2C)c2c1-c1cccn3c(C(=O)c4cc(F)c(NC(=O)/C=C/CNC5(C)CC5)c(F)c4)cc(c13)CCN2C (single isomer, unassigned) [Example 160, (E)-N-(2,6-difluoro-4-(7-methoxy-9,12-dimethyl-9,12,13,14-tetrahydro-imidazo[4″,5″:5′,6′]benzo-[1′,2′:2,3]azocino[4,5,6-hi]indolizine-2-carbon-yl)phenyl)-4-((1-methyl-cyclopropyl)amino)but-2-enamide]
8 | 27.9 nM | 16.4 nM | – | CN1CCc2nc(C(=O)c3cc(F)c(NC(=O)/C=C/CN[C@H]4CCOC4)c(F)c3)n3cccc(c23)-c2c(C(F)(F)F)cc3c(ncn3C)c21 (single isomer, unassigned) [Example 167]

Second part, the compound before the results:

Row | Compound | IC50 [1] | IC50 (MIA PaCa-2 cells; Homo sapiens, MIA PaCa-2, 72 h) | IC50 (MIA PaCa-2 cells)
9 | COCc1nc2c3c(c(C)cc2n1C)-c1cccn2c(C(=O)c4cc(F)c(NC(=O)/C=C/CN[C@H]5CC[C@H](OC)CC5)c(F)c4)cc(c12)CCN3C (single isomer, unassigned) [Example 105, (E)-N-(2,6-difluoro-4-(10-(methoxymethyl)-7,9,12-trimethyl-9,12,13,14-tetra-hydroimidazo[4″,5″:5′,6′]-benzo[1′,2′:2,3]azocino-[4,5,6-hi]indolizine-2-carbonyl)phenyl)-4-(((1r,4r)-4-methoxycyclo-hexyl)amino)but-2-en-amide] | 19.2 nM | 15.5 nM | –
10 | COCc1nc2c3c(c(C)cc2n1C)-c1cccn2c(C(=O)c4cc(F)c(NC(=O)/C=C/CN[C@H]5CCOC5)c(F)c4)cc(c12)CCN3C (single isomer, unassigned) [Example 106] | 18 nM | 21.9 nM | –
11 | Cc1cc2c(nc(C)n2C)c2c1-c1cccn3c(C(=O)c4cc(F)c(NC(=O)/C=C/CN[C@H]5CCOC5)c(F)c4)cc(c13)CCN2C (single isomer, unassigned) [Example 107] | 23.7 nM | 29.7 nM | –
12 | Cc1cc2c(ncn2C)c2c1-c1cccn3c(C(=O)c4cc(F)c(NC(=O)/C=C/CN[C@H]5CCOC5)c(F)c4)cc(c13)CCN2C (single isomer, unassigned) [Example 117] | 20.5 nM | 55.3 nM | –
13 | COc1cc2c(nc(C)n2C)c2c1-c1cccn3c(C(=O)c4cc(F)c(NC(=O)/C=C/CN[C@H]5CCOC5)c(F)c4)cc(c13)CCN2C (single isomer, unassigned) [Example 129] | 8.8 nM | 7.11 nM | –
14 | CC1Cc2cc(C(=O)c3cc(F)c(NC(=O)/C=C/CNC4(C)COC4)c(F)c3)n3cccc(c23)-c2c(C(F)(F)F)cc3c(ncn3C)c2O1 (single isomer, unassigned) [Example 130-1, (E)-N-(4-(9,13-dimethyl-7-(trifluoromethyl)-13,14-dihydro-9H-imidazo[4″,5″:5′,6′]benzo[1′,2′:2,3]oxocino[4,5,6-hi]indolizine-2-carbonyl)-2,6-difluorophenyl)-4-((3-methyloxetan-3-yl)amino)but-2-enamide] | 26.3 nM | – | 17.4 nM
15 | CC1Cc2cc(C(=O)c3cc(F)c(NC(=O)/C=C/CNC4(C)COC4)c(F)c3)n3cccc(c23)-c2c(C(F)(F)F)cc3c(ncn3C)c2O1 (single isomer, unassigned) [Example 130-2, (E)-N-(4-(9,13-dimethyl-7-(trifluoromethyl)-13,14-dihydro-9H-imidazo[4″,5″:5′,6′]benzo[1′,2′:2,3]oxocino[4,5,6-hi]indolizine-2-carbonyl)-2,6-difluorophenyl)-4-((3-methyloxetan-3-yl)amino)but-2-enamide] | 3760 nM | – | 3410 nM
16 | CC1Cc2cc(C(=O)c3cc(F)c(NC(=O)/C=C/CNC4(C)COC4)c(F)c3)n3cccc(c23)-c2c(C(F)(F)F)cc3c(ncn3C)c2O1 (single isomer, unassigned) [Example 131, (E)-N-(4-(9,13-dimethyl-7-(trifluoromethyl)-13,14-dihydro-9H-imidazo[4″,5″:5′,6′]benzo[1′,2′:2,3]oxocino[4,5,6-hi]indolizine-2-carbonyl)-2,6-difluorophenyl)-4-((3-methyloxetan-3-yl)amino)but-2-enamide] | 27.9 nM | – | 40.8 nM
17 | COc1cc2c(nc(C)n2C)c2c1-c1cccn3c(C(=O)c4cc(F)c(NC(=O)/C=C/CNC5(C)CC5)c(F)c4)cc(c13)CCN2C (single isomer, unassigned) [Example 140, (E)-N-(2,6-difluoro-4-(7-methoxy-9,10,12-trimethyl-9,12,13,14-tetrahydroimidazo[4″,5″:5′,6′]benzo[1′,2′:2,3]azocino[4,5,6-hi]indolizine-2-carbonyl)phenyl)-4-((1-methylcyclopropyl)amino)but-2-enamide] | 4.13 nM | 7.59 nM | –
